Measurements reported in patent US20250339391A1, “METHODS FOR EFFECTIVE MANAGEMENT OF PAIN” (South Rampart Pharma, Inc., priority 2024, published 2025).

Key:
Beagle dogs [1] = test: Single oral dose (capsule) toxicity and pharmacokinetic study in Beagle dogs (non-GLP); type: in vivo
Experimental: 2) A Single Oral Dose Toxicity and Pharmacokinetic Study of SRP-001 in Beagle Dogs (non-GLP) SRP-001 was prepared into capsules for oral administration. Three experimentally non-naïve Beagle dogs, at least 7 months old and weighing 7.7 to 10 kg prior to treatment initiation, were administered a single dose of 300 mg/kg SRP-001 (Calvert Labs/Altasciences, Scott Township, PA USA). On the day of dosing, animals were observed prior to dose administration, approximately 1-3 h post-dose, and once on day 2. Body weights were recorded for all animals prior to dose administration for the preparation of the capsules. Blood for bioanalytical evaluation was collected at selected timepoints on day 1. Following the completion of the study, surviving animals were not euthanized. They were returned to the Calvert colony for an appropriate washout period before possible use in a subsequent study. […] Plasma samples were collected at seven different time points post-dose.

[2] = tested on: Salmonella typhimurium strains and Escherichia coli strain WP2 uvrA; test: Ames reverse mutation assay; type: cell-based
Experimental: To further evaluate the potential genotoxicity of SRP-001 and determine the validity of the in vitro findings, a second in vivo assay, a GLP-compliant Comet assay, was conducted in accordance with ICH S2(R1) Guidance on Genotoxicity Testing and Data Interpretation for Pharmaceuticals Intended for Human Use. […] SRP-001 was tested to evaluate its mutagenic potential by measuring its ability to induce reverse mutations at selected loci of several strains of Salmonella typhimurium (S. typhimurium) and at the tryptophan locus of Escherichia coli (E. coli) strain WP2 uvrA in the presence and absence of an exogenous metabolic activation system (Bioreliance, Rockville, MD USA). Dimethyl sulfoxide (10% DMSO) was used as the vehicle. The dose levels tested in the preliminary toxicity assay were 6.67, 10.0, 33.3, 66.7, 100, 333, 667, 1000, 3333, and 5000 μg per plate. No precipitate was observed. […] The dose levels tested in the mutagenicity assay were 100, 333, 667, 1000, 3333, and 5000 μg per plate. […] In the preliminary toxicity assay, the doses tested ranged from 0.0405 to 405 μg/mL (1 mM), which was the limit dose for this assay (Bioreliance, Rockville, MD USA).

Sprague-Dawley rats = test: 5-day repeat-dose oral toxicity and toxicokinetics in Sprague-Dawley rats (non-GLP); type: in vivo, rat
Experimental: 4) A Dose-Range-Finding Oral Toxicity Study with SRP-001 in Sprague-Dawley Rats (Non-GLP) As part of a two-phase study, repeat-dose toxicity and toxicokinetics of SRP-001, when administered via oral gavage once daily to Sprague-Dawley rats for 5 d, was done (Calvert Labs/Altasciences, Scott Township, PA USA). The doses selected for Phase II were based on the results of Phase I. SRP-001 was administered to 20 naïve rats (5/group in Groups 5-8) once daily for 5 days via oral gavage for toxicology evaluation and once to 18 naïve rats (6/group in Groups 9-11) for toxicokinetic evaluation.
Mortality/morbidity was performed twice daily and once prior to sacrifice. Clinical observations were evaluated prior to each dose administration and approximately 1-3 h post-dose for animals in Groups 5-8. Body weights were recorded prior to randomization/selection, prior to dose administration on day 1 for animals in Groups 5-11, and prior to dose administration on day 5 for Groups 5-8. Food consumption was recorded for animals from Groups 5-8 on day 5. Blood for evaluation of hematology, coagulation and clinical chemistry and urine for urinalysis was collected from animals in Groups 5-8 on day 6. All animals in Groups 5-8 were sacrificed on […]. Selected tissues were harvested at necropsy, selected organs weighed, and selected tissues preserved. Blood for toxicokinetic evaluation was collected from animals in Groups 9-11 at selected timepoints on day 1 to ensure comprehensive data capture. These timepoints include 0 hour (pre-dose) and post-dose intervals of 1, 2, 4, 8, and 24 hours on both Day 1 and […] of the study. This schedule allows for a robust assessment of SRP-001's pharmacokinetic profile, including absorption, distribution, metabolism, and excretion and is in line with current FDA-guidelines for GLP studies.

Beagle dogs [3] = conditions: dog, in vivo
Experimental: 8) A 28-day Oral Toxicity Study of SRP-001 in Beagle Dogs with a 14-day Recovery (GLP study) SRP-001 was supplied by Olon Ricerca Bioscience as an off-white powder. The test article was then prepared into dosing suspensions for oral administration via gavage (Calvert Labs/Altasciences, Scott Township, PA USA). Thirty-two experimentally naïve Beagle dogs (16 males and 16 females), 8-9 months old and weighing 6.7-10.5 kg for males and females at the outset of the study, were administered 0, 165, 330, or 495 mg/kg/d. Animals were dosed three times daily (3-5 h between doses) for 28 consecutive days. Prior to this dosing schedule, the dosing was initiated with once daily dosing at 0, 100, 300, or 900 mg/kg at a dose volume of 5 to 10 ml/kg. Due to adverse clinical signs noted following dosing of all groups at a dose volume of 10 ml/kg, dosing of the animals was suspended on day 2 for males and day 1 for females. The study was restarted with T.I.D. dosing in lower dose volume to reduce vehicle-related toxicity.
In-life data from the initial start of the study using once daily dosing were not included in the report but are maintained in the study file. Following the restart of the study, the study was conducted as follows. Mortality/morbidity was performed twice daily and once prior to the scheduled sacrifice. Animals were observed prior to each dose administration and 1-3 h after each dose administration. Animals were also observed once daily on non-dosing days and once prior to scheduled sacrifice. Body weights were recorded prior to randomization/selection, prior to the first dose administration on day 1 and weekly thereafter. Food consumption was determined daily. Ophthalmology examinations and electrocardiograms were performed before treatment initiation and during the last week of dosing. Blood for evaluation of hematology, coagulation and clinical chemistry and urine for urinalysis was collected prior to treatment initiation and on days 29 and 43. Blood for toxicokinetic evaluation was collected at selected timepoints on days 1 and 28. All surviving animals were sacrificed on day 29 or day 43. Selected tissues were harvested at necropsy, selected organs weighed, and selected tissues evaluated microscopically.

CCN(CC)C(=O)c1ccccc1S(=O)(=O)NCC(=O)Nc1ccc(O)cc1 [SRP-001, N,N-diethyl-2-[[2-(4-hydroxyanilino)-2-oxo-ethyl]sulfamoyl]benzamide]
tolerability (Beagle dogs [1]; dog, in vivo, 300 mg/kg): well tolerated | bioavailability (Beagle dogs [1]; single 300 mg/kg, capsules): poor bioavailability | mutagenic response (reverse mutations) ([2]; 100-5000 μg per plate, with and without S9): No positive mutagenic responses were observed | precipitate and toxicity ([2]; mutagenicity assay, up to 5000 μg per plate): Neither precipitate nor toxicity was observed | dose with toxicity (reduction in the revertant count) ([2]; preliminary toxicity assay, TA1537 and WP2 uvrA, absence of S9): 5000 μg per plate | liver weights and cholesterol (Sprague-Dawley rats; 5 days oral gavage): increases in absolute and relative liver weights and increased cholesterol levels | tolerated dose (Sprague-Dawley rats; Sprague-Dawley, rat, in vivo, 5 d): 1200 mg/kg | AUC and Cmax levels (Sprague-Dawley rats; day 1 toxicokinetics): increased in a dose-dependent manner | half-life (Sprague-Dawley rats; high dose): 6.86 h | Tmax (Sprague-Dawley rats; low dose): 3 h | Tmax (Sprague-Dawley rats; mid and high doses): 4.5 h | half-life (Sprague-Dawley rats; mid dose): 6.19 h | reversibility after 14-d recovery (Beagle dogs [3]; both, Beagle, 14 d): nearly all SRP-001-related changes observed on day 29 were reversible | no-adverse-effect level (Beagle dogs [3]; both, Beagle, 28 d): 330 mg/kg/day | doses without treatment-related adverse effects (Beagle dogs [3]; both, Beagle, po, 28 d): up to 330 mg/kg/day | hematology finding (Beagle dogs [3]): regenerative anemia
